Assay results taken from US20100298141A1, “SUBSTITUTED PYRIDINE N-OXIDE HERBICIDES” (E. I. DU PONT DE NEMOURS AND COMPANY, priority 2007, published 2010).

What was measured:
[1] = test system: wheat; assay: Test A pre-/postemergence greenhouse test; format: in vivo, Triticum aestivum; details: for Wheat plant response rating: 0 to 100 scale; for Plant response rating, Wheat: 0 to 100 scale where 0 is no effect and 100 is complete control
How it was run: (§1)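 Two application timings were run side by side in the greenhouse. Before emergence, compound went onto the soil surface of loam–sand pots as a directed spray; after emergence, plants at 2–10 cm and the one- to two-leaf stage were treated. Visual injury versus controls was rated at approximately day ten.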

[2] = test system: rice; assay: Test C flooded paddy test; format: in vivo, Oryza sativa; details: Flood
How it was run: (§2)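 Greenhouse pots flooded to 3 cm above soil at time of treatment received compound via the water, which stayed at that level.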

[3] = test system: bermudagrass; assay: Test C pre-/postemergence test; format: in vivo, Cynodon dactylon; details: for Plant response rating, Bermudagrass: 31 g ai/ha
How it was run: (§3)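 Test chemicals were formulated with surfactant in a non-phytotoxic solvent and sprayed both on freshly planted seeds (preemergence) and on 1- to 4-leaf plants of 2–18 cm (postemergence). Flooded-paddy pots received compound directly into 3 cm of standing water, maintained for the test.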

[4] = test system: crabgrass; assay: Test C pre-/postemergence test; format: in vivo, Digitaria sanguinalis; details: for Plant response rating, Crabgrass, Large: 31 g ai/ha, scale 0 to 100 (0 no effect, 100 complete control)
How it was run: as §3

[5] = test system: johnsongrass; assay: Test C pre-/postemergence test; format: in vivo, Sorghum halepense; details: for Plant response rating, Johnsongrass: 31 g ai/ha, scale 0 to 100 (0 no effect, 100 complete control)
How it was run: as §3

[6] = test system: pigweed; assay: Test C pre-/postemergence test; format: in vivo, Amaranthus retroflexus; details: for Plant response rating, Pigweed: 31 g ai/ha, scale 0 to 100 (0 no effect, 100 complete control)
How it was run: as §3

[7] = test system: corn; assay: Test A pre-/postemergence greenhouse test; format: in vivo, Zea mays; details: for Corn plant response rating: 0 to 100 scale; for Plant response rating, Corn: 0 to 100 scale where 0 is no effect and 100 is complete control
How it was run: as §1

[8] = test system: giant foxtail; assay: Test C pre-/postemergence test; format: in vivo, Setaria faberii; details: for Plant response rating, Foxtail, Giant: 31 g ai/ha, scale 0 to 100 (0 no effect, 100 complete control)
How it was run: as §3

[9] = test system: barnyardgrass; assay: Test C flooded paddy test; format: in vivo, Echinochloa crus-galli; details: Flood
How it was run: as §2

[10] = test system: morningglory; assay: Test C pre-/postemergence test; format: in vivo, Ipomoea coccinea; details: for Plant response rating, Morningglory: 31 g ai/ha, scale 0 to 100 (0 no effect, 100 complete control)
How it was run: as §3

[11] = test system: lambsquarters; assay: Test C pre-/postemergence test; format: in vivo, Chenopodium album
How it was run: as §3

[12] = test system: soybean; assay: Test C pre-/postemergence test; format: in vivo, Glycine max; details: for Plant response rating, Soybean: 31 g ai/ha, scale 0 to 100 (0 no effect, 100 complete control)
How it was run: as §3

[13] = test system: downy brome; assay: Test C pre-/postemergence test; format: in vivo, Bromus tectorum; details: for Plant response rating, Bromegrass, Downy: 31 g ai/ha, scale 0 to 100 (0 no effect, 100 complete control)
How it was run: as §3

[14] = test system: giant foxtail; assay: Test A pre-/postemergence greenhouse test; format: in vivo, Setaria faberi; details: for Foxtail, Giant plant response rating: 0 to 100 scale; for Plant response rating, Foxtail, Giant: 0 to 100 scale where 0 is no effect and 100 is complete control
How it was run: as §1

[15] = test system: Surinam grass; assay: Test C pre-/postemergence test; format: in vivo, Brachiaria decumbens; details: for Plant response rating, Surinam Grass: 31 g ai/ha, scale 0 to 100 (0 no effect, 100 complete control)
How it was run: as §3

[16] = test system: velvetleaf; assay: Test A pre-/postemergence greenhouse test; format: in vivo, Abutilon theophrasti; details: for Velvetleaf plant response rating: 0 to 100 scale; for Plant response rating, Velvetleaf: 0 to 100 scale where 0 is no effect and 100 is complete control
How it was run: as §1

[17] = test system: catchweed bedstraw; assay: Test C pre-/postemergence test; format: in vivo, Galium aparine; details: for Plant response rating, Galium: 31 g ai/ha, scale 0 to 100 (0 no effect, 100 complete control)
How it was run: as §3

[18] = Postemergence, 125 g ai/ha, 0 is no effect, 100 is complete control
[19] = Postemergence, 500 g ai/ha, 0 is no effect, 100 is complete control
[20] = Preemergence, 125 g ai/ha, 0 no effect, 100 complete control
[21] = 31 g ai/ha, scale 0 to 100 (0 no effect, 100 complete control)
[22] = 62 g ai/ha, scale 0 to 100, 0 no effect, 100 complete control, 13 to 15 days
[23] = 125 g ai/ha, scale 0 to 100, 0 no effect, 100 complete control, 13 to 15 days
[24] = 250 g ai/ha, scale 0 to 100, 0 no effect, 100 complete control, 13 to 15 days
[25] = 62 g ai/ha, Preemergence, scale 0 to 100 (0 no effect, 100 complete control)
[26] = 125 g ai/ha, preemergence, scale 0 (no effect) to 100 (complete control)
[27] = Preemergence, scale 0 to 100 (0 no effect, 100 complete control)
[28] = preemergence, 250 g ai/ha, scale 0 (no effect) to 100 (complete control)
[29] = 62 g ai/ha, Preemergence, scale 0 to 100
[30] = 250 g ai/ha, scale 0 to 100 (0 no effect, 100 complete control)
[31] = preemergence, 125 g ai/ha, scale 0 (no effect) to 100 (complete control)

SMILES: Cc1cc[n+]([O-])c(S(=O)(=O)C(Cl)c2c(C(F)(F)F)nn(C)c2OCC(F)(F)F)c1 (racemic) [Compound 37]
- Wheat plant response rating [1, 18]: 0
- Wheat plant response rating [1, 19]: 50
- Wheat plant response rating [1, 20]: 20
- Plant response rating, Wheat ([1]; Preemergence, 500 g ai/ha): 50
- Plant response rating, Rice [2, 21]: 15
- Plant response rating, Rice [2, 22]: 15
- Plant response rating, Rice [2, 23]: 25
- Plant response rating, Rice [2, 24]: 70
- Bermudagrass plant response rating [3, 25]: 90
- Bermudagrass plant response rating [3, 26]: 100
- Plant response rating, Bermudagrass [3, 27]: 85
- Bermudagrass plant response rating [3, 28]: 100
- Crabgrass, Large plant response rating [4, 29]: 80
- Crabgrass, Large plant response rating [4, 26]: 100
- Plant response rating, Crabgrass, Large ([4]; Preemergence): 55
- Crabgrass, Large plant response rating [4, 28]: 100
- Johnsongrass plant response rating [5, 29]: 80
- Johnsongrass plant response rating [5, 26]: 80
- Plant response rating, Johnsongrass ([5]; Preemergence): 50
- Johnsongrass plant response rating [5, 28]: 95
- Pigweed plant response rating [6, 29]: 100
- Pigweed plant response rating [6, 26]: 100
- Plant response rating, Pigweed ([6]; Preemergence): 80
- Pigweed plant response rating [6, 28]: 100
- Corn plant response rating [7, 18]: 0
- Corn plant response rating [7, 19]: 40
- Corn plant response rating [7, 20]: 0
- Plant response rating, Corn ([7]; Preemergence, 500 g ai/ha): 30
- Foxtail, Giant plant response rating [8, 29]: 70
- Foxtail, Giant plant response rating [8, 26]: 85
- Plant response rating, Foxtail, Giant ([8]; Preemergence): 20
- Foxtail, Giant plant response rating [8, 28]: 100
- Plant response rating, Barnyardgrass [9, 21]: 10
- Plant response rating, Barnyardgrass [9, 22]: 10
- Plant response rating, Barnyardgrass [9, 23]: 10
- Plant response rating, Barnyardgrass [9, 24]: 80
- Morningglory plant response rating [10, 29]: 0
- Morningglory plant response rating [10, 26]: 0
- Plant response rating, Morningglory ([10]; Preemergence): 0
- Morningglory plant response rating [10, 28]: 60
- Lambsquarters plant response rating [11, 29]: 80
- Lambsquarters plant response rating [11, 26]: 100
- Plant response rating, Lambsquarters ([11]; Preemergence, 31 g ai/ha, scale 0 to 100 (0 no effect, 100 complete control)): 0
- Lambsquarters plant response rating [11, 28]: 100
- Soybean plant response rating [12, 26]: 10
- Plant response rating, Soybean ([12]; Preemergence): 0
- Soybean plant response rating [12, 28]: 10
- Plant response rating, Bromegrass, Downy ([13]; Preemergence): 0
- Bromegrass, Downy plant response rating [13, 28]: 60
- Foxtail, Giant plant response rating [14, 18]: 30
- Foxtail, Giant plant response rating [14, 19]: 80
- Foxtail, Giant plant response rating [14, 20]: 90
- Plant response rating, Foxtail, Giant ([14]; Preemergence, 500 g ai/ha): 100
- Surinam Grass plant response rating [15, 29]: 100
- Surinam Grass plant response rating [15, 26]: 100
- Plant response rating, Surinam Grass ([15]; Preemergence): 50
- Surinam Grass plant response rating [15, 28]: 100
- Velvetleaf plant response rating [16, 18]: 0
- Velvetleaf plant response rating [16, 19]: 10
- Velvetleaf plant response rating [16, 20]: 40
- Plant response rating, Velvetleaf ([16]; Preemergence, 500 g ai/ha): 80
- Plant response rating, Galium ([17]; Preemergence): 80
- Galium plant response rating [17, 28]: 80

SMILES: Cn1nc(C(F)(F)F)c(CS(=O)(=O)c2cc(C(C)(C)C)cc[n+]2[O-])c1OC(F)F [Compound 25]
- Wheat plant response rating [1, 18]: 0
- Wheat plant response rating [1, 19]: 40
- Wheat plant response rating [1, 20]: 40
- Plant response rating, Wheat ([1]; Preemergence, 500 g ai/ha): 60
- Plant response rating, Rice [2, 21]: 0
- Plant response rating, Rice [2, 22]: 0
- Plant response rating, Rice [2, 23]: 65
- Plant response rating, Rice [2, 30]: 75
- Bermudagrass plant response rating [3, 25]: 100
- Plant response rating, Bermudagrass [3, 27]: 75
- Plant response rating (0 to 100), Bermudagrass ([3]; Preemergence, 250 g ai/ha): 100
- Bermudagrass plant response rating [3, 31]: 100
- Crabgrass, Large plant response rating [4, 29]: 100
- Plant response rating, Crabgrass, Large ([4]; Preemergence): 100
- Plant response rating (0 to 100), Crabgrass, Large ([4]; Preemergence, 250 g ai/ha): 100
- Johnsongrass plant response rating [5, 29]: 98
- Plant response rating, Johnsongrass ([5]; Preemergence): 70
- Plant response rating (0 to 100), Johnsongrass ([5]; Preemergence, 250 g ai/ha): 100
- Pigweed plant response rating [6, 29]: 100
- Plant response rating, Pigweed ([6]; Preemergence): 100
- Corn plant response rating [7, 18]: 0
- Corn plant response rating [7, 19]: 20
- Corn plant response rating [7, 20]: 0
- Plant response rating, Corn ([7]; Preemergence, 500 g ai/ha): 60
- Foxtail, Giant plant response rating [8, 29]: 85
- Plant response rating, Foxtail, Giant ([8]; Preemergence): 40
- Plant response rating, Barnyardgrass [9, 21]: 0
- Plant response rating, Barnyardgrass [9, 22]: 0
- Plant response rating, Barnyardgrass [9, 23]: 30
- Plant response rating, Barnyardgrass [9, 30]: 80
- Morningglory plant response rating [10, 29]: 50
- Plant response rating, Morningglory ([10]; Preemergence): 0
- Lambsquarters plant response rating [11, 29]: 60
- Soybean plant response rating [12, 29]: 20
- Plant response rating, Soybean ([12]; Preemergence): 0
- Bromegrass, Downy plant response rating [13, 29]: 0
- Plant response rating, Bromegrass, Downy ([13]; Preemergence): 0
- Plant response rating (0 to 100), Bromegrass, Downy ([13]; Preemergence, 250 g ai/ha): 50
- Bromegrass, Downy plant response rating [13, 31]: 0
- Foxtail, Giant plant response rating [14, 18]: 30
- Foxtail, Giant plant response rating [14, 19]: 70
- Foxtail, Giant plant response rating [14, 20]: 100
- Plant response rating, Foxtail, Giant ([14]; Preemergence, 500 g ai/ha): 100
- Surinam Grass plant response rating [15, 29]: 50
- Plant response rating, Surinam Grass ([15]; Preemergence): 0
- Velvetleaf plant response rating [16, 18]: 30
- Velvetleaf plant response rating [16, 19]: 50
- Velvetleaf plant response rating [16, 20]: 60
- Plant response rating, Velvetleaf ([16]; Preemergence, 500 g ai/ha): 100
- Galium plant response rating [17, 29]: 98
- Plant response rating, Galium ([17]; Preemergence): 70
- Plant response rating (0 to 100), Galium ([17]; Preemergence, 250 g ai/ha): 100
